Assay results reported in patent US6133263A, “Endothelin antagonists with ether-linked groups” (Warner-Lambert Company, priority 1998, dated 2000).
Read-outs that look alike come from different tables or passages of the source. Where a SMILES comes first, the peptide text is derived from it. [ ]: non-standard residue; d: D form.

Legend:
human ETB R = target: T1, human ETB R (Homo sapiens, UniProt P24530); experiment: [125I]-ET-1 radioligand binding assay, CHO-K1 cells expressing recombinant human ETB R (HERBA-B); conditions: CHO cell membranes, [125I]-ET-1 40 pM, 2 hours at 37° C
T1 construct: expressed in transfected cells; host or cells: CHO-K1 cells, membranes
T1 sequence (P24530 27-442): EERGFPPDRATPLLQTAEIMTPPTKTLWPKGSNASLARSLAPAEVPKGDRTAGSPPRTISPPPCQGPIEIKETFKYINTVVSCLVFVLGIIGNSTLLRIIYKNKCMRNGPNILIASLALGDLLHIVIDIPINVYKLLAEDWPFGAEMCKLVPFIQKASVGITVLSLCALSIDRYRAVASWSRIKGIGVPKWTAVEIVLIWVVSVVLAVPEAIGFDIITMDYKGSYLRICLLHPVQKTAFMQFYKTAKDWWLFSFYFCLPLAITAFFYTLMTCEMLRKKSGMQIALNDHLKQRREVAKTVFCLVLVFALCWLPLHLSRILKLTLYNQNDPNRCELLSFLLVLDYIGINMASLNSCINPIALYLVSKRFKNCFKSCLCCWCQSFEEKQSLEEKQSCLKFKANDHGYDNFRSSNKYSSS
Description: The compounds of Formula I are valuable as antagonists of endothelin.
The following radioligand binding assays were used (Reynolds E. E.; Keiser J. A.; Haleen S. J.; Walker D. M.; Davis L. S.; Olszewski B.; Taylor D. G.; Hwang O.; Welch K. M.; Flynn M. A.; Thompson D. M.; et. al., J. Pharmacol. Exp. Ther., 1995;273:1410-1417).
The following cultured cells were used in binding experiments: CHO-KL cells expressing recombinant human ETB R (HERBA B), or Ltk- cells expressing human ETA R (HERBA A). […] Membranes were prepared from cultured cells by lysing cells in cold lysis buffer (5 mM HEPES, 2 mM EDTA, pH 7.4) and homogenizing with a Dounce "A" homogenizer. All of the homogenates were centrifuged at 30,000×g for 20 minutes at 4° C. Membrane pellets were resuspended in cold buffer containing 20 mM Tris, […], 200 μM Pefablock, 10 μM phosphoramidon, 10 μM leupeptin, and 1 μM pepstatin (pH 7.4) and frozen at -80° C. until use. Radioligand and competing ligands were prepared in binding buffer containing 20 mM Tris, 2 mM EDTA, and 0.1% BSA.
Competition binding assays were initiated by combining membranes, [^125 ]-ET-1 (40 pM) and competing ligand in a final volume of 250 μL and incubating for 2 hours at 37° C. The assay was terminated by filtration over Whatman GF/B filters that were presoaked with 50 mM Tris, pH 7.4, containing 0.2% BSA and 100 μM bacitracin. […] was defined as total binding minus nonspecific binding. Specific binding was analyzed by nonlinear least squared curve fitting (InPlot, GraphPad Software, San Diego, Calif.), and the estimated IC50 value was used to calculate Ki according to the method of Cheng and Prusoff (1973).

human ETA R = target: T2, human ETA R (Homo sapiens, UniProt P25101); experiment: [125I]-ET-1 radioligand binding assay, Ltk- cells expressing human ETA R (HERBA-A); conditions: Ltk- cell membranes, [125I]-ET-1 40 pM, 2 hours at 37° C
T2 sequence (P25101 21-427): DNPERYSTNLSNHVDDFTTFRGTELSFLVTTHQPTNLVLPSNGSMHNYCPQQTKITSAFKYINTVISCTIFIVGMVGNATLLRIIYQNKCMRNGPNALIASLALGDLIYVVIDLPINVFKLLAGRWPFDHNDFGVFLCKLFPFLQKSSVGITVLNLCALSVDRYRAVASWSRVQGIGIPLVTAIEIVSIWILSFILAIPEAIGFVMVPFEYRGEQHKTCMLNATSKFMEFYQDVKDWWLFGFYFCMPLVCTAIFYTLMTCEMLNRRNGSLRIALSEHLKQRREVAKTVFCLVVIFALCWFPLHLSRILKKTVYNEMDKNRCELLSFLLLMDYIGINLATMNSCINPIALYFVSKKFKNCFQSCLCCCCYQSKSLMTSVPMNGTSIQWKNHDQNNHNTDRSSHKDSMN

[1] = test system: endothelin-stimulated arachidonic acid release in rabbit renal artery vascular smooth muscle cells; experiment: inhibition of ET-1 stimulated arachidonic acid release (AAR) in cultured rabbit renal artery vascular smooth muscle cells; type: cell-based; conditions: Oryctolagus cuniculus, 0.5 h, read-out: AAR-A
neointima formation = conditions: rats, carotid artery balloon angioplasty; cited from earlier work
[2] = oral; cited from earlier work
[3] = test system: ET-1 induced bronchoconstriction and tracheal smooth muscle contraction; conditions: allergic sheep; cited from earlier work
cerebral vasospasm [4] = conditions: in vivo; cited from earlier work
[5] = test system: pulmonary vascular resistance and pulmonary arterial pressure; conditions: rat hypoxia model of hypertension; cited from earlier work
chronic heart failure = conditions: patients with chronic heart failure; cited from earlier work
acute renal ischemia = conditions: models of acute renal ischemia; cited from earlier work
[6] = test system: ET-1-induced changes in gastric mucosal hemodynamics and gastric ulceration; conditions: in vivo; cited from earlier work
prostate smooth muscle = conditions: in vivo; cited from earlier work
[7] = test system: ischemic damage in the cerebral hemisphere; conditions: cats, middle cerebral artery occlusion, IV; cited from earlier work
cerebral vasospasm [8] = conditions: rat; cited from earlier work
ischemic brain injury = conditions: rats, oral; cited from earlier work
[9] = test system: vasoconstriction of the basilar artery; conditions: after 7 days, canine two-hemorrhage model of SAH; cited from earlier work

For `COc1ccc(C2(OCCCS(=O)(=O)O)OC(=O)C(c3ccc4c(c3)OCO4)=C2Cc2cc(OC)c(OC)c(OC)c2)cc1` (centres unmarked), the IC50 (human ETB R) was 1900 nM, the IC50 (human ETA R) was 0.15 nM and the IC50 [1] was 0.3 nM.

In the case of `CCCOc1ccc2c(c1)C(c1ccc(OC)cc1OCC(=O)O)C(C(=O)O)C2c1ccc2c(c1)OCO2` (single isomer, unassigned) [SB 209670], the neointima formation (neointima formation) is given as “found to ameliorate neointima formation”.

For `Cc1noc(NS(=O)(=O)c2cccc3c(N(C)C)cccc23)c1C` [5-(Dimethylamino)-N-(3,4-dimethyl-5-isoxazolyl)-1-naphthalenesulfonamide], the antihypertensive effect [2] is given as “demonstrated an oral antihypertensive effect”.

For `CC(C)C[C@@H]1NC(=O)[C@@H](C(C)C)NC(=O)[C@@H]2CCCN2C(=O)[C@@H](CC(=O)O)NC(=O)[C@@H](Cc2c[nH]c3ccccc23)NC1=O` [BQ-123] (cyclo(L[dW][dD]P[dV])), the “ET-1 induced bronchoconstriction and tracheal smooth muscle contraction” value [3] is listed as “shown to block ET-1 induced bronchoconstriction and tracheal smooth muscle contraction”, the “early cerebral vasospasm following SAH” value (cerebral vasospasm [4]) is listed as “shown to prevent early cerebral vasospasm” and the “protection / increase in pulmonary vascular resistance and pulmonary arterial pressure” value (“protection / increase” for short) [5] is listed as “provide protection in a rat hypoxia model of hypertension”.

In the case of `COc1ccccc1Oc1c(NS(=O)(=O)c2ccc(C(C)(C)C)cc2)nc(-c2ncccn2)nc1OCCO` [Bosentan], the “protection / increase” value [5] is given as “provide protection in a rat hypoxia model of hypertension”, the cardiac performance (chronic heart failure) is given as “found to improve cardiac performance” and the “efficacy in acute renal ischemia” value (acute renal ischemia) is given as “effective in models of acute renal ischemia”. The “ET-1-induced changes in gastric mucosal hemodynamics and ET-1-induced gastric ulceration” value [6] was “found to be an antagonist toward the ET-1-induced changes in gastric mucosal hemodynamics as well as on ET-1-induced gastric ulceration”.

With `COc1ccc(C2(OCCN3CCOCC3)OC(=O)C(c3ccc4c(c3)OCO4)=C2Cc2cc(OC)c(OC)c(OC)c2)cc1` (centres unmarked) [Example 1] the IC50 (human ETB R) was 12000 nM, the IC50 (human ETA R) was 2.8 nM and the IC50 ([1]; ET-1 0.3 nM, test compound 1 nM to 1 μM, 30 minutes) was 10 nM.

For `COc1ccc(C2(OCCCN(C)C)OC(=O)C(c3ccc4c(c3)OCO4)=C2Cc2cc(OC)c(OC)c(OC)c2)cc1` (centres unmarked) [Example 3, 3-Benzo[1,3]dioxol-5-yl-5-(3-dimethylamino-propoxy)-5-(4-methoxy-phenyl)-4-(3,4,5-trimethoxy-benzyl)-5H-furan-2-one], the IC50 (human ETB R) was greater than 2500 nM and the IC50 (human ETA R) was 12 nM.

For `COc1ccc(C2(OCCN(C)C)OC(=O)C(c3ccc4c(c3)OCO4)=C2Cc2cc(OC)c(OC)c(OC)c2)cc1` (centres unmarked) [Example 4, 3-Benzo[1,3]dioxol-5-yl-5-(2-dimethylamino-ethoxy)-5-(4-methoxy-phenyl)-4-(3,4,5-trimethoxy-benzyl)-5H-furan-2-one], the IC50 (human ETB R) was 1080 nM and the IC50 (human ETA R) was 0.3 nM.

`COc1ccc(C2(OCCN3CCOCC3)OC(=O)C(c3cc(OC)c4c(c3)OCO4)=C2Cc2cc(OC)c(OC)c(OC)c2)cc1` (centres unmarked) [Example 5, 3-(7-Methoxy-benzo[1,3]dioxol-5-yl)-5-(4-methoxy-phenyl)-5-(2-morpholin-4-yl-ethoxy)-4-(3,4,5-trimethoxy-benzyl)-5H-furan-2-one] showed an IC50 (human ETB R) of 700 nM and an IC50 (human ETA R) of 1.7 nM.

`COc1ccc(C2(OCCN(C)C)OC(=O)C(c3cc(OC)cc(OC)c3)=C2Cc2cc(OC)c(OC)c(OC)c2)cc1` (centres unmarked) [Example 6] gave an IC50 (human ETB R) of 2200 nM and an IC50 (human ETA R) of 2.6 nM.

For `COc1ccc(C2(O)OC(=O)C(c3ccc4c(c3)OCO4)=C2Cc2ccccc2)cc1` (centres unmarked) [PD 155080], the “prostate smooth muscle function” value (prostate smooth muscle) is given as “found to mediate prostate smooth muscle function in vivo”.

For `COc1ccc(C2(O)OC(=O)C(c3ccc4c(c3)OCO4)=C2Cc2cc(OC)c(OC)c(OC)c2)cc1` (centres unmarked) [PD 156707], the “volume of ischemic damage in the cerebral hemisphere” value [7] is listed as “significantly reduced” and the “protection / increase” value [5] is listed as “provide protection in a rat hypoxia model of hypertension”.

For `COc1cccc(Oc2c(NS(=O)(=O)c3ccc(C(C)(C)C)cc3)ncnc2OCCO)c1` [Ro 46-2005], the “early cerebral vasospasm following SAH” value (cerebral vasospasm [8]) is given as “shown to prevent early cerebral vasospasm”.

In the case of `CCCOc1ccc2c(c1)C(c1ccc(OC)cc1OCCO)C(C(=O)O)C2c1ccc2c(c1)OCO2` (centres unmarked) [SB 217242], the ischemic brain injury (ischemic brain injury) is listed as “Reduction of ischemic brain injury”.

For FR 139317, the “vasoconstriction of the basilar artery” value [9] is listed as “significantly inhibited the vasoconstriction of the basilar artery”.
